# Experiments:
# [1] = system: guinea pig ileum; assay: antigen-induced contraction of ileum from sensitized guinea pigs; conditions: Cavia porcellus, read-out: Percentage Inhibition, 30 μM compound, n = 3-4
# Method: The ability of compounds to inhibit allergen-induced contraction of ileum from sensitized animals is indicative of antiallergic activity. Sensitized guinea pig ileum is particularly useful in measuring the immediate allergic response.
# The guinea pig ileum has been used to evaluate the ability of compounds to inhibit allergan-induced histamine and mediator release causing smooth muscle contraction. Guinea pigs were sensitized by an intraperitoneal injection of 100 mg ovalbumin and an intramuscular injection of 50 mg ovalbumin on day 0, followed by a second intramuscular injection of 50 mg ovalbumin on day 1. […] Segments of ileum were prepared and suspended, with muscle contractions being measured in the longitudinal plane, in Tyrode's buffer at 37° C. and aerated with 5% CO2 in O2. Tissues were suspended under a resting tension of 2 grams and isometric contractions were measured using force-displacement transducers coupled to a polygraph. Tissues were stimulated with 3 μM histamine 3 times to ensure reproducible contractions were obtained. Tissues were then incubated with each compound (30 μM) or 0.15% dimethylsulphoxide (DMSO) as a control, for 20 min, after which time the tissues were challenged with 100 μg/ml ovalbumin. The magnitude of the contraction induced by OA in the presence of each compound was expressed as a percentage of the contraction obtained to 3 μM histamine. The protective effects of the various compounds on OA-induced contraction of guinea pig ileum from sensitized animals are summarized in Table 4.
# [2] = system: sensitized guinea pigs; assay: allergen-induced changes in lung resistance and compliance in vivo; set-up: species or system guinea pig
# Method: Female Cam Hartley guinea pigs (350-400 g) are sensitized to ovalbumin by exposure of the guinea pigs to a nebulized solution of 1% ovalbumin in saline for 15 minutes. After 10-12 days, the animals are found to be acutely sensitized to the allergen (ovalbumin). Animals are treated by oral gavage, under light halothane anesthesia, with 300 μl polyethyleneglycol-200 (PEG) or 5 mg/Kg of test compound in 300 μl of PEG. Animals are treated once daily for 4 days with the final dose administered 2 hours prior to allergen challenge. Alternatively, compounds were delivered by inhalation, using a Hudson nebulizer driven by 6 psi oxygen, providing a single dose of 50 μg/Kg 20 min prior to challenge.
# An animal is anaesthetized using ketamine ([…]; i.p.) and xylazine (10 mg/Kg; i.p.) and 1% halothane during the surgical procedure. A tracheostomy is performed and a water-filled esophageal cannula is inserted prior to positioning the animal in a body plethysmograph. The tracheal cannula is attached to a fixed tracheal cannula in the plethysmograph. Cardiac function is monitored using electrocardiography. The animal is paralyzed using pancuronium bromide (0.8 mg/Kg; i.m.) and ventilated with 3 ml tidal breaths using a Harvard small animal ventilator, at a frequency of 60 breaths per minute. Pulmonary resistance and dynamic lung compliance data are obtained from volume, flow and transpulmonary pressure signals using multipoint analysis.
# Pulmonary function is continually monitored throughout the experiment and measurements of lung resistance and lung compliance are made at various time-points (e.g., 0, 1, 2, 3, 4, 5, 10, 20 and 30 min) following antigen challenge. Data is collected on a computer-linked physiological measurement system using DIREC Physiological recording software and analyzed using ANADAT software designed for lung mechanics measurements. This software was obtained from RHT-InfoDat Inc., Montreal, Quebec, Canada.
# Once baseline resistance and compliance measurements are obtained, the animal is challenged with 6 breaths of saline. After 10 minutes, during which time no alterations in lung function should occur, the animal is challenged with 6 breaths of 2 or 3% ovalbumin in saline (as the antigen stimulus). Saline and antigen are delivered in each breath using a Hudson nebulizer.
# [3] = 5 mg/kg/day for 4 days p.o., 1 min after challenge
# [4] = 5 mg/kg/day for 4 days p.o., 3 min after challenge
# [5] = 5 mg/kg/day for 4 days p.o., 4 min after challenge
# [6] = 5 mg/kg/day for 4 days p.o., 5 min after challenge
# [7] = 5 mg/kg/day for 4 days p.o., 10 min after challenge
# [8] = 5 mg/kg/day for 4 days p.o., 20 min after challenge
# [9] = 5 mg/kg/day for 4 days p.o., 30 min after challenge
# [10] = 5 mg/kg/day for 4 days p.o., Baseline
# [11] = 5 mg/kg/day for 4 days p.o., OA/10 s
compound,measurement,setting,value
"C/C=C1/CCC2C3C(CC[C@]12C)[C@@]1(C)CC[C@@H](O)CC1[C@@H](O)[C@@H]3O (stereo partly drawn) [Compound 330, 3α,6α,7β-trihydroxy-17(20)-pregnene]",inhibition at 30 µM,[1],70%
same,Lung Resistance,"[2]; 50 μg/kg inhalation, 3 min after challenge",0.420 ± 0.051 cm H2O/ml/sec
same,Lung Compliance,"[2]; 50 μg/kg inhalation, 4 min after challenge",0.145 ± 0.046 ml/cm H2O
same,Lung Compliance,[2]; [3],0.182 ± 0.093 ml/cm H2O
same,Lung Resistance,[2]; [3],0.560 ± 0.101 cm H2O/ml/sec
same,Lung Resistance,"[2]; 5 mg/kg/day for 4 days p.o., 2 min after challenge",0.845 ± 0.201 cm H2O/ml/sec
same,Lung Compliance,[2]; [4],0.133 ± 0.095 ml/cm H2O
same,Lung Resistance,[2]; [4],0.887 ± 0.160 cm H2O/ml/sec
same,Lung Compliance,[2]; [5],0.124 ± 0.088 ml/cm H2O
same,Lung Resistance,[2]; [5],0.778 ± 0.119 cm H2O/ml/sec
same,Lung Compliance,[2]; [6],0.125 ± 0.087 ml/cm H2O
same,Lung Resistance,[2]; [6],0.791 ± 0.139 cm H2O/ml/sec
same,Lung Compliance,[2]; [7],0.150 ± 0.082 ml/cm H2O
same,Lung Resistance,[2]; [7],0.661 ± 0.141 cm H2O/ml/sec
same,Lung Compliance,[2]; [8],0.184 ± 0.061 ml/cm H2O
same,Lung Resistance,[2]; [8],0.366 ± 0.046 cm H2O/ml/sec
same,Lung Compliance,[2]; [9],0.196 ± 0.061 ml/cm H2O
same,Lung Resistance,[2]; [9],0.340 ± 0.037 cm H2O/ml/sec
same,Lung Compliance,[2]; [10],0.318 ± 0.042 ml/cm H2O
same,Lung Resistance,[2]; [10],0.275 ± 0.036 cm H2O/ml/sec
same,Lung Compliance,[2]; [11],0.435 ± 0.041 ml/cm H2O
same,Lung Resistance,[2]; [11],0.260 ± 0.036 cm H2O/ml/sec
